Source: patent publication US20250026757A1, “Bicyclic Compounds for the Control of Invertebrate Pests” (BASF SE, priority 2021, published 2025)

How the values were obtained:
Type in all cases: in vivo
Spodoptera eridania = assay: Southern armyworm (Spodoptera eridania), 2nd instar larvae, foliar spray on lima bean plants; details: 96 h, 2nd instar larvae on sprayed lima bean, 4 days after treatment, read-out: mortality in comparison with untreated controls
Description: B.4. Southern Armyworm (Spodoptera eridania), 2nd Instar Larvae
The active compounds were formulated by a Tecan liquid handler in 100% cyclohexanone as a 10,000-ppm solution supplied in tubes. The 10,000-ppm solution was serially diluted in 100% cyclohexanone to make interim solutions. These served as stock solutions for which final dilutions were made by the Tecan in 50% acetone:50% water (v/v) into 10 or 20 ml glass vials. A non-ionic surfactant (Kinetic®) was included in the solution at a volume of 0.01% (v/v). The vials were then inserted into an automated electrostatic sprayer equipped with an atomizing nozzle for application to plants/insects. Lima bean plants (variety Sieva) were grown 2 plants to a pot and selected for treatment at the 1st true leaf stage. Test solutions were sprayed onto the foliage by an automated electrostatic plant sprayer equipped with an atomizing spray nozzle. The plants were dried in the sprayer fume hood and then removed from the sprayer. Each pot was placed into perforated plastic bags with a zip closure. Ten to 11 armyworm larvae were placed into the bag and the bags zipped closed. Test plants were maintained in a growth room at about 25° C. and about 20-40% relative humidity for 4 days, avoiding direct exposure to fluorescent light (14:10 light:dark photoperiod) to prevent trapping of heat inside the bags. Mortality and reduced feeding were assessed 4 days after treatment, compared to untreated control plants.

Aedes aegypti = assay: whole plant or invertebrate; details: 48 h, larval mortality, 2 days, read-out: mortality in comparison with untreated controls
Description: B.5 Yellow Fever Mosquito (Aedes aegypti)
For evaluating control of yellow fever mosquito (Aedes aegypti) the test unit consisted of 96-well-microtiter plates containing 200 μl of tap water per well and 5-15 freshly hatched A. aegypti larvae.
The active compounds were formulated using a solution containing 75% (v/v) water and 25% (v/v) DMSO. Different concentrations of formulated compounds or mixtures were sprayed onto the insect diet at 2.5 μl, using a custom-built micro atomizer, at two replications.
After application, microtiter plates were incubated at 28±1° C., 80±5% RH for 2 days. Larval mortality was then visually assessed.

Heliothis virescens = assay: Tobacco budworm (Heliothis virescens) test, eggs on insect diet in 96-well microtiter plates; details: 120 h, egg and larval mortality, 5 days, read-out: mortality in comparison with untreated controls
Description: B.2 Tobacco Budworm (Heliothis virescens)
For evaluating control of tobacco budworm (Heliothis virescens), the test unit consisted of 96-well-microtiter plates containing an insect diet and 15-25 H. virescens eggs.
The compounds were formulated using a solution containing 75% v/v water and 25% v/v DMSO. Different concentrations of formulated compounds were sprayed onto the insect diet at 10 μl, using a custom-built micro atomizer, at two replications.
After application, microtiter plates were incubated at about 28±1° C. and about 80±5% relative humidity for 5 days. Egg and larval mortality was then visually assessed.

Anthonomus grandis = assay: Boll weevil (Anthonomus grandis) test, eggs on insect diet in 96-well microtiter plates; details: 120 h, egg and larval mortality, 5 days, read-out: mortality in comparison with untreated controls
Description: B.3 Boll Weevil (Anthonomus grandis)
For evaluating control of boll weevil (Anthonomus grandis), the test unit consisted of 96-well-microtiter plates containing an insect diet and 5-10 A. grandis eggs.
The compounds were formulated using a solution containing 75% v/v water and 25% v/v DMSO. Different concentrations of formulated compounds were sprayed onto the insect diet at 5 μl, using a custom-built micro atomizer, at two replications.
After application, microtiter plates were incubated at about 25±1° C. and about 75±5% relative humidity for 5 days. Egg and larval mortality was then visually assessed.

Myzus persicae = assay: Green peach aphid (Myzus persicae) systemic test, artificial diet in 96-well microtiter plates; details: 72 h, adult aphids on treated diet, 3 days, read-out: mortality in comparison with untreated controls
Excerpt: B.1 Green Peach Aphid (Myzus persicae)
For evaluating control of green peach aphid (Myzus persicae) through systemic means, the test unit consisted of 96-well-microtiter plates containing liquid artificial diet under an artificial membrane.
The compounds were formulated using a solution containing 75% v/v water and 25% v/v DMSO. Different concentrations of formulated compounds were pipetted into the aphid diet, using a custom built pipetter, at two replications.
After application, 5-8 adult aphids were placed on the artificial membrane inside the microtiter plate wells. The aphids were then allowed to suck on the treated aphid diet and incubated at about 23±1° C. and about 50±5% relative humidity for 3 days. Aphid mortality and fecundity was then visually assessed.

CCS(=O)(=O)c1cc(-c2ccc(F)cc2)cnc1-c1cc(=O)n2c(cc(C(F)(F)F)n2C)n1 [Compound I-3, 5-[3-ethylsulfonyl-5-(4-fluorophenyl)-2-pyridyl]-1-methyl-2-(trifluoro-methyl)pyrazolo[1,5-a]pyrimidin-7-one]
≥ 75%: mortality at 300 ppm (Spodoptera eridania) | mortality at 2500 ppm (Aedes aegypti) | mortality at 2500 ppm (Heliothis virescens) | mortality at 2500 ppm (Anthonomus grandis) | mortality at 2500 ppm (Myzus persicae)

CCS(=O)(=O)c1cc(N=S(C)(C)=O)cnc1-c1cc(=O)n2c(cc(C(F)(F)F)n2C)n1 [Compound I-2, 5-[5-[[dimethyl(oxo)-λ6-sulfanylidene]amino]-3-ethylsulfonyl-2-pyridyl]-1-methyl-2-(trifluoromethyl)pyrazolo[1,5-a]pyrimidin-7-one]
≥ 75%: mortality at 2500 ppm (Aedes aegypti) | mortality at 2500 ppm (Anthonomus grandis) | mortality at 2500 ppm (Myzus persicae)

CCS(=O)(=O)c1cc(Br)cnc1-c1nc2cc(C(F)(F)F)n(C)n2c(=O)c1C [Compound I-16, 5-(5-bromo-3-ethylsulfonyl-2-pyridyl)-1,6-dimethyl-2-(trifluoromethyl)pyrazolo[1,5-a]pyrimidin-7-one]
≥ 75%: mortality at 2500 ppm (Anthonomus grandis) | mortality at 2500 ppm (Myzus persicae)

CCS(=O)(=O)c1cc(Br)cnc1-c1cc(=O)n2c(cc(C(F)(F)F)n2C)n1 [Compound I-1, 5-(5-bromo-3-ethylsulfonyl-2-pyridyl)-1-methyl-2-(trifluoromethyl)pyrazolo[1,5-a]pyrimidin-7-one]
≥ 75%: mortality at 2500 ppm (Aedes aegypti) | mortality at 2500 ppm (Heliothis virescens) | mortality at 2500 ppm (Anthonomus grandis) | mortality at 2500 ppm (Myzus persicae)

CCS(=O)(=O)c1cc(Br)ccc1-c1cc(=O)n2c(cc(C(F)(F)F)n2C)n1 [Compound I-7, 5-(4-bromo-2-ethylsulfonyl-phenyl)-1-methyl-2-(trifluoromethyl)pyrazolo[1,5-a]pyrimidin-7-one]
≥ 75%: mortality at 300 ppm (Spodoptera eridania) | mortality at 2500 ppm (Aedes aegypti) | mortality at 2500 ppm (Myzus persicae)

CCS(=O)(=O)c1cc(-c2ccc(OC(F)F)cc2)cnc1-c1cc(=O)n2c(cc(C(F)(F)F)n2C)n1 [Compound I-4, 5-[5-[4-(difluoromethoxy)phenyl]-3-ethylsulfonyl-2-pyridyl]-1-methyl-2-(trifluoromethyl)pyrazolo[1,5-a]pyrimidin-7-one]
≥ 75%: mortality at 300 ppm (Spodoptera eridania) | mortality at 2500 ppm (Aedes aegypti) | mortality at 2500 ppm (Heliothis virescens) | mortality at 2500 ppm (Anthonomus grandis) | mortality at 2500 ppm (Myzus persicae)
